Source: PubChem BioAssay AID330 (DTP/NCI, 2004)
Where “and” joins values, the source holds several entries; their conditions need not be identical. Equal values may be shown once. Inconclusive results and toxic doses are left out. Peptide text beside a SMILES is read from it.

Tested on: P388 leukemia ip, CD2F1 mice, survival T/C
Assay: NCI In Vivo Anticancer Drug Screen. Data for tumor model P388 Leukemia (intraperitoneal) in CD2F1 (CDF1) mice
Settings: endpoint: median survival time, higher = longer survival
Procedure, shortened: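 Mice carrying the transplanted tumor received test compound or vehicle. Survival was recorded in each group, and the value is the treated-group measurement divided by that of the vehicle-treated control group.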

[1] = dose: 50.0 mg/kg/injection, schedule: Q01DX005 (ip), vehicle: saline
[2] = dose: 100.0 mg/kg/injection, schedule: Q01DX005 (ip), vehicle: saline
[3] = dose: 200.0 mg/kg/injection, schedule: Q01DX005 (ip), vehicle: saline
[4] = dose: 60.0 mg/kg/injection, schedule: Q01DX005 (ip), vehicle: saline
[5] = dose: 120.0 mg/kg/injection, schedule: Q01DX005 (ip), vehicle: saline
[6] = dose: 50.0 mg/kg/injection, schedule: Q01DX005 (ip), vehicle: saline with Tween-80
[7] = dose: 100.0 mg/kg/injection, schedule: Q01DX005 (ip), vehicle: saline with Tween-80
[8] = dose: 200.0 mg/kg/injection, schedule: Q01DX005 (ip), vehicle: saline with Tween-80
[9] = dose: 60.0 mg/kg/injection, schedule: Q01DX005 (ip), vehicle: saline with Tween-80
[10] = dose: 50.0 mg/kg/injection, schedule: Q01DX009 (ip), vehicle: saline with Tween-80
[11] = dose: 100.0 mg/kg/injection, schedule: Q01DX009 (ip), vehicle: saline with Tween-80
[12] = dose: 200.0 mg/kg/injection, schedule: Q01DX009 (ip), vehicle: saline with Tween-80
[13] = dose: 25.0 mg/kg/injection, schedule: Q01DX009 (ip), vehicle: saline
[14] = dose: 50.0 mg/kg/injection, schedule: Q01DX009 (ip), vehicle: saline

With `CC(N)C(=O)NC(Cc1ccc(O)cc1)C(=O)NC(Cc1ccccc1)C(N)=O` (stereo not drawn) (H-Ala-Tyr-Phe-NH2; configuration not given here) the T/C [1] was 102 % of control, the T/C [2] was 101 % of control and the T/C [3] was 101 % of control.

In the case of `NC1CCC[C@@H](O)[C@H]1O` (some centres not stated), the T/C [4] is reported as 104 % of control, the T/C [5] is reported as 103 % of control and the T/C (dose: 240.0 mg/kg/injection, schedule: Q01DX005 (ip), vehicle: saline) is reported as 98 % of control.

`C=CCN1C(=O)c2cc(Cl)c(Cl)cc2C1=O` was tested, and the T/C [6] was 102 % of control, the T/C [7] was 87 % of control and the T/C [8] was 94 % of control.

In the case of `CCC(=O)c1c(O)c2ccccc2oc1=O`, the T/C (dose: 15.0 mg/kg/injection, schedule: Q01DX005 (ip), vehicle: saline with Tween-80) is reported as 104 % of control, the T/C (dose: 30.0 mg/kg/injection, schedule: Q01DX005 (ip), vehicle: saline with Tween-80) is reported as 107 % of control and the T/C [9] is reported as 104 % of control.

With `COc1cccc2c1C(=O)c1c(O)c3c(c(O)c1C2=O)C[C@@](O)(C(=O)CO)C[C@@H]3OC1CC(NCC#N)C(O)C(C)O1` (some centres not stated) the T/C (dose: 8.0 mg/kg/injection, schedule: Q04DX003 (ip), vehicle: saline + alcohol) was 153 % of control, the T/C (dose: 32.0 mg/kg/injection, schedule: Q04DX003 (ip), vehicle: saline + Tween-80 + alcohol) was 108 % of control and the T/C (dose: 32.0 mg/kg/injection, schedule: Q04DX003 (ip), vehicle: saline + alcohol) was 117 % of control.

For `CC1(/C=N/NC(N)=O)NC(=O)NC1=O` (configuration not stated), the T/C [6] was 96 % of control, the T/C [7] was 103 % of control and the T/C [8] was 96 % of control.

For `COc1cc2c(cc1OC)C13CCN4CC5=CCOC(CC(=O)O)C(C5CC41)C3N2` (configuration not stated), the T/C (dose: 15.0 mg/kg/injection, schedule: Q01DX005 (ip), vehicle: saline) was 100 % of control, the T/C (dose: 30.0 mg/kg/injection, schedule: Q01DX005 (ip), vehicle: saline) was 96 % of control and the T/C [9] was 99 % of control. The T/C [4] was 94 % of control and 93 % of control and the T/C [5] was 96 % of control.

With `CCN(CC)C(=O)CSc1ccc(Cl)nn1` the T/C [10] was 97 % of control, the T/C [11] was 98 % of control and the T/C [12] was 94 % of control.

In the case of `S=c1[nH]ccn1-c1c(Cl)cccc1Cl`, the T/C (dose: 50.0 mg/kg/injection, schedule: Q01DX009 (ip), vehicle: Klucel (hydroxypropylcellulose) (HPC)) is reported as 99 % of control and the T/C (dose: 100.0 mg/kg/injection, schedule: Q01DX009 (ip), vehicle: Klucel (hydroxypropylcellulose) (HPC)) is reported as 100 % of control.

With `CC(=O)OC[C@]12CCC(C)=CC1O[C@@H]1C(OC(C)=O)[C@@H](O)[C@@]2(C)[C@]12CO2` (some centres not stated) the T/C (dose: 0.5 mg/kg/injection, schedule: Q01DX009 (ip), vehicle: saline) was 116 % of control and the T/C (dose: 4.0 mg/kg/injection, schedule: Q01DX009 (ip), vehicle: saline) was 165 % of control.

`CCOC(=O)C1=C(C(=O)c2ccc(OC)cc2)C(c2ccc([N+](=O)[O-])cc2)C(C(=O)c2ccc(OC)cc2)=C(C(=O)OCC)N1` was tested, and the T/C [9] was 89 % of control, the T/C (dose: 120.0 mg/kg/injection, schedule: Q01DX005 (ip), vehicle: saline with Tween-80) was 89 % of control and the T/C (dose: 240.0 mg/kg/injection, schedule: Q01DX005 (ip), vehicle: saline with Tween-80) was 93 % of control.

With `O=Cc1cccc(C=O)c1` the T/C (dose: 0.63 mg/kg/injection, schedule: Q04DX002 (ip), vehicle: saline with Tween-80) was 106 % of control, the T/C (dose: 1.25 mg/kg/injection, schedule: Q04DX002 (ip), vehicle: saline with Tween-80) was 105 % of control and the T/C (dose: 2.5 mg/kg/injection, schedule: Q04DX002 (ip), vehicle: saline with Tween-80) was 107 % of control.

With `CCN(CC)CCNc1nc(NCCN(CC)CC)c2cn[nH]c2n1` the T/C (dose: 1.5 mg/kg/injection, schedule: Q01DX005 (ip), vehicle: saline) was 99 % of control, the T/C (dose: 3.0 mg/kg/injection, schedule: Q01DX005 (ip), vehicle: saline) was 103 % of control and the T/C (dose: 6.0 mg/kg/injection, schedule: Q01DX005 (ip), vehicle: saline) was 100 % of control and 102 % of control.

For `N/C(=N\OC(=O)Nc1ccc(CSc2ccc(Cl)cc2)o1)c1ccccn1`, the T/C (dose: 12.5 mg/kg/injection, schedule: Q01DX005 (ip), vehicle: Klucel (hydroxypropylcellulose) (HPC)) was 106 % of control and 109 % of control, the T/C (dose: 25.0 mg/kg/injection, schedule: Q01DX005 (ip), vehicle: Klucel (hydroxypropylcellulose) (HPC)) was 107 % of control and 110 % of control and the T/C (dose: 50.0 mg/kg/injection, schedule: Q01DX005 (ip), vehicle: Klucel (hydroxypropylcellulose) (HPC)) was 110 % of control and 114 % of control and 120 % of control. The T/C (dose: 100.0 mg/kg/injection, schedule: Q01DX005 (ip), vehicle: Klucel (hydroxypropylcellulose) (HPC)) was 109 % of control and 111 % of control.

`C[N+](C)(C)CCC(=O)c1cccc([N+](=O)[O-])c1` was tested, and the T/C (dose: 12.5 mg/kg/injection, schedule: Q01DX009 (ip), vehicle: saline) was 101 % of control, the T/C [13] was 97 % of control and the T/C [14] was 108 % of control and 97 % of control.

With `CC(=O)OCC(=O)[C@@]1(O)CC[C@H]2[C@@H]3CCC4=CC(=O)[C@H](C)C[C@]4(C)[C@H]3[C@@H](O)C[C@@]21C` the T/C (dose: 100.0 mg/kg/injection, schedule: Q04DX003 (ip), vehicle: other) was 100 % of control, the T/C (dose: 200.0 mg/kg/injection, schedule: Q04DX003 (ip), vehicle: other) was 100 % of control and the T/C (dose: 400.0 mg/kg/injection, schedule: Q04DX003 (ip), vehicle: other) was 115 % of control.

With `NCCSCCO` the T/C [1] was 98 % of control, the T/C [2] was 100 % of control and the T/C [3] was 99 % of control.

With `c1ccc(-c2nc3ccccc3o2)cc1` the T/C (dose: 25.0 mg/kg/injection, schedule: Q01DX009 (ip), vehicle: saline with Tween-80) was 86 % of control, the T/C [10] was 98 % of control and the T/C [11] was 101 % of control. For the same compound, the T/C [12] was 88 % of control.

With `CC(=O)SC1CC(=O)OC1=O` (configuration not stated) the T/C [13] was 100 % of control, the T/C [14] was 105 % of control and the T/C (dose: 100.0 mg/kg/injection, schedule: Q01DX009 (ip), vehicle: saline) was 96 % of control. The T/C (dose: 200.0 mg/kg/injection, schedule: Q01DX009 (ip), vehicle: saline) was 105 % of control.

In the case of `O=C1OC(=O)C2C3C=CC(C4C=C(C5CC5)C43)C12` (configuration not stated), the T/C (dose: 100.0 mg/kg/injection, schedule: Q04DX003 (ip), vehicle: saline) is reported as 102 % of control, the T/C (dose: 200.0 mg/kg/injection, schedule: Q04DX003 (ip), vehicle: saline) is reported as 107 % of control and the T/C (dose: 400.0 mg/kg/injection, schedule: Q04DX003 (ip), vehicle: saline) is reported as 111 % of control.

In the case of `O=c1c2c([nH]c3ccc4[nH]c5c(c(=O)c4c13)CCCC5)CCCC2`, the T/C (dose: 100.0 mg/kg/injection, schedule: Q04DX003 (ip), vehicle: saline with Tween-80) is reported as 94 % of control, the T/C (dose: 200.0 mg/kg/injection, schedule: Q04DX003 (ip), vehicle: saline with Tween-80) is reported as 91 % of control and the T/C (dose: 400.0 mg/kg/injection, schedule: Q04DX003 (ip), vehicle: saline with Tween-80) is reported as 87 % of control.

With `CCCCCNS(=O)(=O)c1ccc(C)cc1` the T/C (dose: 50.0 mg/kg/injection, schedule: Q01DX009 (ip), vehicle: saline + alcohol) was 107 % of control, the T/C (dose: 100.0 mg/kg/injection, schedule: Q01DX009 (ip), vehicle: saline + alcohol) was 107 % of control and the T/C (dose: 200.0 mg/kg/injection, schedule: Q01DX009 (ip), vehicle: saline + alcohol) was 118 % of control. The T/C (dose: 400.0 mg/kg/injection, schedule: Q01DX009 (ip), vehicle: saline + alcohol) was 101 % of control.

`O=C1C(c2ccccc2)C2NC(C1c1ccccc1)C([N+](=O)[O-])C=C2[N+](=O)[O-]` (configuration not stated) was tested, and the T/C (dose: 25.0 mg/kg/injection, schedule: Q01DX001 (ip), vehicle: Klucel (hydroxypropylcellulose) (HPC)) was 94 % of control and the T/C (dose: 50.0 mg/kg/injection, schedule: Q01DX001 (ip), vehicle: Klucel (hydroxypropylcellulose) (HPC)) was 90 % of control.

`CCC(=O)OC1C2(O)C(OC(=O)C(C)C)C3(C)CC24OC2(C)OC15C1CC(=O)OC(c6ccoc6)C1(C)CCC5(O2)C4(C)C3CC(=O)OC` (configuration not stated) was tested, and the T/C (dose: 0.37 mg/kg/injection, schedule: Q01DX009 (ip), vehicle: Klucel (hydroxypropylcellulose) (HPC)) was 108 % of control, the T/C (dose: 0.75 mg/kg/injection, schedule: Q01DX009 (ip), vehicle: Klucel (hydroxypropylcellulose) (HPC)) was 101 % of control and the T/C (dose: 1.5 mg/kg/injection, schedule: Q01DX009 (ip), vehicle: Klucel (hydroxypropylcellulose) (HPC)) was 102 % of control. The T/C (dose: 3.0 mg/kg/injection, schedule: Q01DX009 (ip), vehicle: Klucel (hydroxypropylcellulose) (HPC)) was 96 % of control.

In the case of `C=CCNC(=O)c1cc(N2CC2)c([N+](=O)[O-])cc1[N+](=O)[O-]`, the T/C (dose: 12.5 mg/kg/injection, schedule: Q01DX009 (ip), vehicle: Klucel (hydroxypropylcellulose) (HPC)) is reported as 91 % of control and 97 % of control.
